Experiments:
Format in all cases: in vivo
[1] = test system: two spotted spidermite (Tetranychus urticae); assay: Tetranychus urticae - spray test OP-resistant; conditions: for Efficacy in % after 2 days: mortality after 2 days; for Efficacy in % after 6 days: mortality after 6 days
Experimental: (§1) Formula for the Efficacy of the Combination of Two Compounds • The expected efficacy of a given combination of two compounds is calculated as follows (see Colby, S. R., “Calculating Synergistic and antagonistic Responses of Herbicide Combinations”, Weeds 15, pp. 20-22, 1967): • If • X is the efficacy expressed in % mortality of the untreated control for test compound A at a concentration of m ppm respectively m g/ha, • Y is the efficacy expressed in % mortality of the untreated control for test compound B at a concentration of n ppm respectively n g/ha, • E is the efficacy expressed in % mortality of the untreated control using the mixture of A and B at m and n ppm respectively m and n g/ha, • then is
(§2) [formula] • If the observed insecticidal efficacy of the combination is higher than the one calculated as “E”, then the combination of the two compounds is more than additive, i.e. there is a synergistic effect.
Tetranychus urticae—Spray Test OP-Resistant
To produce a suitable preparation of active compound, 1 part by weight of active compound is mixed with the stated amount of solvents and is diluted with water, containing an emulsifier concentration of 1000 ppm, to the desired concentration. Further test concentrations are prepared by dilution with emulsifier containing water.
French bean (Phaseolus vulgaris) leaf disks infected with all instars of the two spotted spidermite (Tetranychus urticae), are sprayed with a preparation of the active ingredient of the desired concentration.
After the specified period of time, mortality in % is determined. 100% means all spider mites have been killed and 0% means none of the spider mites have been killed. The mortality values determined thus are recalculated using the Colby-formula (see above).

[2] = test system: cotton aphid (Aphis gossypii); assay: Aphis gossypii - spray test; conditions: for Efficacy in % after 1 day: mortality after 1 day, cotton leaves; for Efficacy in % after 6 days: mortality after 6 days
Experimental: as §1, §2
Aphis gossypii—Spray Test
(§3) Solvent: 7 parts by weight of dimethylformamide
(§4) Emulsifier: alkylaryl polyglycol ether
(§5) To produce a suitable preparation of active compound, 1 part by weight of active compound is mixed with the stated amount of solvent and is diluted with water, containing an emulsifier concentration of 1000 ppm, to the desired concentration. Further test concentrations are prepared by dilution with emulsifier containing water.
Cotton leaves (Gossypium hirsutum) which are heavily infested with the cotton aphid (Aphis gossypii) are treated by being sprayed with the preparation of the active compound of the desired concentration.
After the specified period of time the mortality in % is determined. 100% means all the aphids have been killed; 0% means none of the aphids have been killed. The mortality values determined thus are recalculated using the Colby-formula (see above).

[3] = test system: caterpillars of the fall army worm (Spodoptera frugiperda); assay: Spodoptera frugiperda - spray test; conditions: for Efficacy in % after 1 day: mortality after 1 day; for Efficacy in % after 2 days: mortality after 2 days; for Efficacy in % after 3 days: mortality after 3 days; for Efficacy in % after 6 days: mortality after 6 days
Experimental: as §1, §2
Spodoptera frugiperda—Spray Test
as §3, §4, §5
Cotton leaves (Gossypium hirsutum) are treated by being sprayed with the preparation of the active compound of the desired concentration and are infested with caterpillars of the fall army worm (Spodoptera frugiperda).
After the specified period of time mortality in % is determined. 100% means all the caterpillars have been killed and 0% means none of the caterpillars have been killed. The mortality values determined thus are recalculated using the Colby-formula (see above).

CNC(=O)c1cc(Cl)cc(C)c1NC(=O)c1cc(Br)nn1-c1ncccc1Cl [Chlorantraniliprole, 3-bromo-4′-chloro-1-(3-chloro-2-pyridyl)-2′-methyl-6′-(methylcarbamoyl)pyrazole-5-carboxanilide]
Efficacy in % after 2 days ([1]; 0.2 g ai/ha): 0%
Efficacy in % after 2 days ([1]; 0.8 g ai/ha): 0%
Efficacy in % after 2 days ([1]; 3.2 g ai/ha): 0%
Efficacy in % after 1 day ([2]; 8 ppm): 10%
Efficacy in % after 6 days ([2]; 8 ppm): 45%

Cc1cc(F)c(N=C2SCC(=O)N2CC(F)(F)F)cc1[S+]([O-])CC(F)(F)F (stereo not shown) [Cpd of formula (I)]
Efficacy in % after 6 days ([1]; 0.1 g ai/ha): 0%
Efficacy in % after 2 days ([1]; 0.4 g ai/ha): 0%
Efficacy in % after 2 days ([1]; 1.6 g ai/ha): 0%
Efficacy in % after 2 days ([1]; 6.4 g ai/ha): 0%
Efficacy in % after 6 days ([2]; 0.8 ppm): 0%
Efficacy in % after 1 day ([2]; 1.6 ppm): 0%
Efficacy in % after 6 days ([2]; 1.6 ppm): 0%
Efficacy in % after 1 day ([3]; 0.3 ppm): 0%
Efficacy in % after 2 days ([3]; 0.3 ppm): 0%
Efficacy in % after 3 days ([3]; 0.3 ppm): 0%
Efficacy in % after 6 days ([3]; 0.3 ppm): 0%
Efficacy in % after 1 day ([3]; 0.6 ppm): 0%
Efficacy in % after 2 days ([3]; 0.6 ppm): 0%
Efficacy in % after 3 days ([3]; 0.6 ppm): 0%
Efficacy in % after 6 days ([3]; 0.6 ppm): 0%
Efficacy in % after 1 day ([3]; 1.2 ppm): 0%
Efficacy in % after 3 days ([3]; 1.2 ppm): 0%
Efficacy in % after 6 days ([3]; 1.2 ppm): 0%

CNC(=O)c1cc(C#N)cc(C)c1NC(=O)c1cc(Br)nn1-c1ncccc1Cl [Cyantraniliprole, 3-bromo-1-(3-chloro-2-pyridyl)-4′-cyano-2′-methyl-6′-(methylcarbamoyl)pyrazole-5-carboxanilide]
Efficacy in % after 2 days ([1]; 0.2 g ai/ha): 0%
Efficacy in % after 2 days ([1]; 0.8 g ai/ha): 0%
Efficacy in % after 2 days ([1]; 3.2 g ai/ha): 0%
Efficacy in % after 2 days ([3]; 0.12 ppm): 0%
Efficacy in % after 3 days ([3]; 0.12 ppm): 0%
Efficacy in % after 6 days ([3]; 0.12 ppm): 10%
Efficacy in % after 1 day ([3]; 0.24 ppm): 0%
Efficacy in % after 2 days ([3]; 0.24 ppm): 0%
Efficacy in % after 3 days ([3]; 0.24 ppm): 10%
Efficacy in % after 6 days ([3]; 0.24 ppm): 20%
Efficacy in % after 3 days ([3]; 0.48 ppm): 60%
Efficacy in % after 6 days ([3]; 0.48 ppm): 70%

CNC(=O)c1cc(C#N)cc(C)c1NC(=O)c1cc(Cn2nnc(C(F)(F)F)n2)nn1-c1ncccc1Cl [Tetraniliprole, 1-(3-chloro-2-pyridyl)-4′-cyano-2′-methyl-6′-methylcarbamoyl-3-{[5-(trifluoromethyl)-2H-tetrazol-2-yl]methyl}pyrazole-5-carboxanilide]
Efficacy in % after 6 days ([1]; 0.05 g ai/ha): 0%
Efficacy in % after 2 days ([1]; 0.2 g ai/ha): 0%
Efficacy in % after 2 days ([1]; 0.8 g ai/ha): 0%
Efficacy in % after 2 days ([1]; 3.2 g ai/ha): 0%
Efficacy in % after 1 day ([3]; 0.06 ppm): 0%
Efficacy in % after 2 days ([3]; 0.06 ppm): 60%
Efficacy in % after 1 day ([3]; 0.12 ppm): 30%
Efficacy in % after 1 day ([3]; 0.24 ppm): 40%

Reference: patent US11191271B2, “Active compound combinations having insecticidal/acaricidal properties” (priority 2017, dated 2021)
